Results on 12 compounds are retold here after ChEMBL document CHEMBL3351299, “Structural insights on carbonic anhydrase inhibitory action, isoform selectivity, and potency of sulfonamides and coumarins incorporating arylsulfonylureido groups” (J Med Chem, 2014).

One assay concerns the target Carbonic anhydrase 1 (Homo sapiens, UniProt P00915). Briefly: Inhibition of human recombinant carbonic anhydrase 1 preincubated for 15 mins by stopped flow CO2 hydration method.
The next assay addresses Carbonic anhydrase 9 (Homo sapiens, UniProt Q16790).
A further assay addresses Carbonic anhydrase 12 (Homo sapiens, UniProt O43570). Nature of the assay: Inhibition of human recombinant carbonic anhydrase 12 preincubated for 15 mins by stopped flow CO2 hydration method.

Sequence of Carbonic anhydrase 12 (O43570 whole entry): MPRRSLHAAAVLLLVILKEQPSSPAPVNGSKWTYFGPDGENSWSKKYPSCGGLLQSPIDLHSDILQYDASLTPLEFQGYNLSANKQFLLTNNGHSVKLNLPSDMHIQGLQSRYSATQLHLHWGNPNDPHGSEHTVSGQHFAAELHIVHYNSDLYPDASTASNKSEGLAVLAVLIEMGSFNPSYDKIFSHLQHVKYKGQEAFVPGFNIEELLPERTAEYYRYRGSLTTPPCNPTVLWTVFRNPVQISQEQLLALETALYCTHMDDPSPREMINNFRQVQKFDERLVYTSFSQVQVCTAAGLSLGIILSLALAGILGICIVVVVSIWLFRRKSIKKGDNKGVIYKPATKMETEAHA
Sequence of Carbonic anhydrase 1 (P00915 whole entry): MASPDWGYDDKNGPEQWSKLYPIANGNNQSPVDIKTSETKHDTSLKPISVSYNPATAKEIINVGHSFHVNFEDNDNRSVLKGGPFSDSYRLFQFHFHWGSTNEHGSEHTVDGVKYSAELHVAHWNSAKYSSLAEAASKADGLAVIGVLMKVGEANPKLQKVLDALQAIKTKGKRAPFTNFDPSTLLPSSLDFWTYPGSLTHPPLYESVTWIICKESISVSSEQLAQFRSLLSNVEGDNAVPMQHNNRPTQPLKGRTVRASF

The term Ki denotes a dissociation constant, usually derived from enzyme kinetics or from competition with a known ligand. For `NS(=O)(=O)c1ccc(CCNC(=O)NS(=O)(=O)c2ccccc2)cc1`, the figures for the Ki on Carbonic anhydrase 1, on Carbonic anhydrase 9 and at Carbonic anhydrase 12 were 21.6 nM, 9.6 nM and 5.9 nM, respectively.
Taken in the same sequence, the figures for `Cc1ccc(S(=O)(=O)NC(=O)NCCc2ccc(S(N)(=O)=O)cc2)cc1` were 67.1 nM, 9.2 nM and 6 nM.
Take `Cc1ccccc1S(=O)(=O)NC(=O)NCCc1ccc(S(N)(=O)=O)cc1`: the Ki at Carbonic anhydrase 1 turned out to be 64.2 nM; at Carbonic anhydrase 12, 6.4 nM.
In the case of `NS(=O)(=O)c1ccc(CCNC(=O)NS(=O)(=O)c2ccc(Cl)cc2)cc1`, the figures for the Ki at Carbonic anhydrase 1, at Carbonic anhydrase 9 and at Carbonic anhydrase 12 were 57.8 nM, 9.7 nM and 5.6 nM, respectively.
The matching figures for `NS(=O)(=O)c1ccc(CCNC(=O)NS(=O)(=O)c2ccc(F)cc2)cc1`: 82.6 nM, 68.4 nM and 6.8 nM.
Taken in the same sequence, the figures for `NS(=O)(=O)c1ccc(CCNC(=O)NS(=O)(=O)c2ccccc2Cl)cc1` were 52.8 nM, 78.9 nM and 5.1 nM.
The matching figures for `Cc1cc(=O)oc2cc(NC(=O)NS(=O)(=O)c3ccccc3)ccc12`: above 10000 nM, 90.7 nM and 68.5 nM.
Turning to `Cc1ccc(S(=O)(=O)NC(=O)Nc2ccc3c(C)cc(=O)oc3c2)cc1`, the Ki on Carbonic anhydrase 1 was above 10000 nM; on Carbonic anhydrase 12, 9.4 nM.
Taken in the same sequence, the figures for `Cc1ccccc1S(=O)(=O)NC(=O)Nc1ccc2c(C)cc(=O)oc2c1` were 4970 nM and 8.9 nM.
On to `Cc1cc(=O)oc2cc(NC(=O)NS(=O)(=O)c3ccc(Cl)cc3)ccc12`, for which the Ki on Carbonic anhydrase 1 worked out at 5730 nM.
Regarding `Cc1cc(=O)oc2cc(NC(=O)NS(=O)(=O)c3ccc(F)cc3)ccc12`, the inhibition constant Ki on Carbonic anhydrase 1 was above 10000 nM; on Carbonic anhydrase 9 it was 23.1 nM; on Carbonic anhydrase 12, 7.7 nM.
Taken in the same sequence, the figures for `Cc1cc(=O)oc2cc(NC(=O)NS(=O)(=O)c3ccccc3Cl)ccc12` were 2380 nM, 87.8 nM and 7.6 nM.
